# Data from ChEMBL document CHEMBL5137086, “Discovery of 1-(Hetero)aryl-β-carboline Derivatives as IDO1/TDO Dual Inhibitors with Antidepressant Activity” (J Med Chem, 2022).
# Activity calls are given as the source filed them. The calls are words filed in the database; no cut-off is given here.
# Key:
# BV-2 [1] = test: Antiinflammatory activity in LPS stimulated mouse BV-2 cells assessed as reduction in COX2 expression at 0.5 to 2 uM pretreated with compound for 1 hr followed by LPS stimulation and measured after 24 hrs by qRT-PCR analysis; assay type: functional, cell-based; details: dose 0.5-2 µM, time 25.0 hrs
# BV-2 [2] = test: Antiinflammatory activity in LPS stimulated mouse BV-2 cells assessed as reduction in iNOS expression at 0.5 to 2 uM pretreated with compound for 1 hr followed by LPS stimulation and measured after 24 hrs by qRT-PCR analysis; assay type: functional, cell-based; details: dose 0.5-2 µM, time 25.0 hrs
# BV-2 [3] = test: Antiinflammatory activity in LPS stimulated mouse BV-2 cells assessed as reduction in IL-1beta expression at 0.5 to 2 uM pretreated with compound for 1 hr followed by LPS stimulation and measured after 24 hrs by qRT-PCR analysis; assay type: functional, cell-based; details: dose 0.5-2 µM, time 25.0 hrs
# [4] = AUC (0 to 24 hrs) in C57BL/6J mouse at 20 mg/kg, iv measured up to 24 hrs by LC-MS/MS analysis; assay type: ADME, organism-based; design: dose 20 mg/kg, time < 24 hrs, route iv; details: in vivo
# [5] = AUC (0 to 24 hrs) in C57BL/6J mouse at 20 mg/kg, ip measured up to 24 hrs by LC-MS/MS analysis; assay type: ADME, organism-based; design: dose 20 mg/kg, time < 24 hrs, route ip; details: in vivo
# [6] = MRT (0 to 24 hrs) in C57BL/6J mouse at 20 mg/kg, iv measured up to 24 hrs by LC-MS/MS analysis; assay type: ADME, organism-based; details: in vivo
# [7] = Volume of distribution at steady state in C57BL/6J mouse at 20 mg/kg, iv measured up to 24 hrs by LC-MS/MS analysis; assay type: ADME, organism-based; details: in vivo, read-out: Vdss
# [8] = Apparent volume of distribution in C57BL/6J mouse at 20 mg/kg, […] measured up to 24 hrs by LC-MS/MS analysis; assay type: ADME, organism-based; details: in vivo, read-out: Vz
# [9] = Acute toxicity in mouse assessed as pathological changes in heart at 10 to 20 mg/kg, ip administered once daily for 20 days by hematoxyin-eosin staining based analysis; assay type: organism-based; details: in vivo, 480 h, dose 10-20 mg/kg, time 20 day
# Mus musculus = test: Antidepressant activity in LPS induced mouse model assessed as rescue of decrease in immobility time at 20 mg/kg, ip pretreated with compound administered once daily for 2 days followed by LPS injection by tail suspension test; assay type: functional, organism-based; details: time 2.0 day
# [10] = AUC (0 to infinity) in C57BL/6J mouse at 20 mg/kg, iv measured up to 24 hrs by LC-MS/MS analysis; assay type: ADME, organism-based; design: dose 20 mg/kg, time < 24 hrs, route iv; details: in vivo
smiles,measurement,setting,value
c1ccc2c(c1)[nH]c1c(-c3c[nH]cn3)nccc12,Activity,BV-2 [1],Active
same,Activity,BV-2 [2],Active
same,Activity,BV-2 [3],Active
same,AUC(0-t) at 24 h,[4],8550 ng·h/mL
same,AUC(0-t) at 24 h,[5],4490 ng·h/mL
same,MRT last at 24 h,[6],1.81 h
same,Vd,[7],4.35 L/kg
same,Vd,[8],7.84 L/kg
same,Activity,[9],Non-Toxic
same,Activity,Mus musculus,Active
same,AUC(0-inf),[10],8560 ng·h/mL
